{
  "source": "paper PMC7591906",
  "about": "“pHLIP ICG for delineation of tumors and blood flow during fluorescence-guided surgery” (Scientific Reports, 2020)",
  "key": {"[1]": {"conditions": "cited from earlier work", "procedure": "We carried out a comparative study of blood flow imaging in mice using ICG-Cys (ICG-maleimide conjugated with a Cys residue) and pHLIP ICG (2.5 nmol of each). […] The most widely used is the near-infrared emitting ICG, first approved for angiography and subsequently used in ophthalmology and elsewhere for imaging blood vessels[36]–[41]. […] If administered intraperitoneally, ICG is found in the nearest lymph nodes within 15 min, and in the regional lymph nodes within 1–2 h[44],[45]. The IV dose of ICG varies from 0.5 to 2.0 ..."}, "[2]": {"experiment": "Peripheral blood micronucleus test in rats (GLP)", "format": "in vivo, Sprague Dawley rats", "conditions": "male rats, 10 mg/kg oral gavage twice, 24 hours apart", "procedure": "The objective of this GLP study performed at CRL was to determine the potential genotoxicity of pHLIP ICG when given by i.v. bolus injection to rats using the peripheral blood micronucleus test.\nIn order to determine the maximum tolerated dose, a dose-range finding test was performed prior to the main test, where male and female rats (3 animals/sex) were administered a single dose of pHLIP ICG by i.v. injection. The doses evaluated were 14 mg/kg and 25 mg/kg using 5% EtOH in PBS, pH 7.4 as the vehicle.\nBlood was collected for micronuclei evaluation at 45 hours post-dose (Groups 3 to 7), and 69 hours post-dose (Groups 3 and 7). The proportion of immature erythrocytes among total erythrocytes in the peripheral blood (%RETs) and the percentage of micronucleated reticulocytes (%MN-RETs) in the NC group were within the laboratory historical negative control range. […] The results from both NC and PC groups confirmed the validity of the assay."}, "progesterone receptor B": {"biological_target": "T1, progesterone receptor B (Homo sapiens, UniProt P06401)", "T1 construct": "purchased Eurofins Panlabs, Inc", "T1 sequence (P06401 1-933)": "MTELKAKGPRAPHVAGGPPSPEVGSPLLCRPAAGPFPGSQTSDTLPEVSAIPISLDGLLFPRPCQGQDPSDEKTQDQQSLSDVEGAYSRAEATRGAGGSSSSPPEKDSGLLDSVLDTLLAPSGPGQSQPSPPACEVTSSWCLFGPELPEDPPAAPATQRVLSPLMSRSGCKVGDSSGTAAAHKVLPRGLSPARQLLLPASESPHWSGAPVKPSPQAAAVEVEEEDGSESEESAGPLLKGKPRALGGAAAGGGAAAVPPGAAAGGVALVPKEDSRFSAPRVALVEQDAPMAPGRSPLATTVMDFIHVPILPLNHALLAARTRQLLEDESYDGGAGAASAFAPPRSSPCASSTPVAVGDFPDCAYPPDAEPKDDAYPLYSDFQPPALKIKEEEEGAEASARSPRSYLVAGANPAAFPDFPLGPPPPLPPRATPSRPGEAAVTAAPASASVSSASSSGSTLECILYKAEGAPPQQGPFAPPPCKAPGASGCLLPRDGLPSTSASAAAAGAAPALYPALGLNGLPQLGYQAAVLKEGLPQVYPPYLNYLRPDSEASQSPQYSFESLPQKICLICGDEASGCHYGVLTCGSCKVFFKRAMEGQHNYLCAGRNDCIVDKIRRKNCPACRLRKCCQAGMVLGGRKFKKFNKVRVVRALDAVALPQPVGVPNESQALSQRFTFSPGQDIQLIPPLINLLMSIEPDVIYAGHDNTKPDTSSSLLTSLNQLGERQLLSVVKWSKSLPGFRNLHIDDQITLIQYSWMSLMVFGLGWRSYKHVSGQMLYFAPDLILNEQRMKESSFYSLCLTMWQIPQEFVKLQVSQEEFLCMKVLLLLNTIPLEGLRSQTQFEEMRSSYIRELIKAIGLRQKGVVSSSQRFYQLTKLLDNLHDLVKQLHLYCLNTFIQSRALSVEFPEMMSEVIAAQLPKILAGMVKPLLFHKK", "experiment": "Progesterone receptor B radioligand binding assay", "procedure": "The pHLIP ICG enzyme binding assays were performed by Eurofins Panlabs, Inc. according to standard assay protocols. The following enzymes were used in the binding assay with 2 µM of pHLIP ICG : acetyl cholinesterase; peptidase (angiotensin converting enzyme); ATPase (Na^+/K^+, pig heart); CTSG peptidase (cathepsin G); cyclooxygenases COX-1 and COX-2; monoamine oxidases MAO-A and MAO-B; phosphodiesterases PDE3 and PDE4D2; protein tyrosine kinase (insulin receptor); protein tyrosine kinase (LCK); protein serine/threonine kinase (PKC, non-selective); adenosine A1 and A2A; adenosine transporter; adrenergic α1A, α1B, α1D, α2A, α2B, β1 and β2; norepinephrine transporter (NET); androgen (testosterone); angiotensin AT1; bradykinin B2; calcium channels L-type (benzothiazepine, dihydropyridine, phenylalkylamine); calcium channel N-type; cannabinoid CB1 and CB2; chemokine CCR1; cholecystokinin CCK1 (CCKA) and CCK2 (CCKB); dopamine D1, D2L and D2S; dopamine transporter (DAT); endothelin ETA; estrogen ERα; GABA transporter; GABAAs (flunitrazepam, central; Ro-15-1788, hippocampus and chloride channel, TBOB); glucocorticoid; glutamate (AMPA, kainate, agonism NMDA, glycine NMDA, phencyclidine NMDA, polyamine NMDA, and mGlu5 metabotropic); glycine (strychnine-sensitive); histamine H1 and H2; chemokine CXCR2 (IL-8RB); cysteinyl leukotriene (CysLT1); melanocortin MC1 and MC4; muscarinic M1, M2, M3, and M4; tachykinin NK1; neuropeptide Y Y1; nicotinic acetylcholine α1 (bungarotoxin) and α3β4; opiate δ1 (OP1, DOP), κ (OP2, KOP), and μ (OP3, MOP); platelet activating factor (PAF); potassium channels (KATP and hERG); PPARγ; serotonin (5-hydroxytryptamine) 5-HT1A, 5-HT1B, 5-HT2A, 5-HT2B, 5-HT2C, and 5-HT3; serotonin transporter (SERT); sodium channel (site 2); vasopressin V1A; progesterone (PR-B). The most significant inhibitory effect of pHLIP ICG was observed on progesterone B and was followed by an additional study to identify IC50 values, which were determined by a non-linear least square regression analysis using MathIQTM (ID Business Solutions Ltd., UK). The Ki values were calculated by the equation from Cheng and Prusoff [Cheng, Y., Prusoff, W.H., Biochem. Pharmacol. 22:3099-3108, 1973] using the observed IC50 of pHLIP ICG , the concentration of radioligand employed in the assay, and the historical values for the KD of the ligand (Eurofins Panlabs data). The Hill coefficient (nH), defining the slope of the competitive binding curve, was calculated using MathIQTM. The IC50, Ki, and nH values were established for pHLIP ICG and compared to the known progesterone agonist, R-2050 (Figure S3).\nFigure SI,3. […]"}},
  "data": [
    {"compound": "CC1(C)C(/C=C/C=C/C=C/C=C2\\N(CCCCS(=O)(=O)O)c3ccc4ccccc4c3C2(C)C)=[N+](CCCCS(=O)(=O)[O-])c2ccc3ccccc3c21", "note": "[ICG, indocyanine green]", "values": [
      {"measurement": "Time to be found in the nearest lymph nodes", "setting": "[1]; administered intraperitoneally", "result": "≤ 15", "unit": "min"},
      {"measurement": "Time to be found in the regional lymph nodes", "setting": "[1]; administered intraperitoneally", "result": "1 to 2", "unit": "h"},
      {"measurement": "Clearance from the blood", "setting": "[1]; as contrast agent for imaging blood flow, no reference given", "result": "within a few minutes"},
      {"measurement": "Half-life in blood", "setting": "[1]", "result": 2.5, "unit": "min"},
      {"measurement": "Time of appearance in the bile after injection", "setting": "[1]; cleared through the liver", "result": "about 8 min"},
      {"measurement": "Acute toxicity", "setting": "[1]; high dose of 5 mg/kg", "result": "no acute toxicity has been observed"}
    ]},
    {"compound": "O=P1(N(CCCl)CCCl)NCCCO1", "note": "(stereo not drawn) [PC, cyclophosphamide monohydrate, reference compound]", "values": [
      {"measurement": "Micronuclei, positive control", "setting": "[2]", "result": "statistically significant increase in micronuclei"}
    ]},
    {"compound": "CCC(=O)[C@@]1(C)CC[C@H]2[C@@H]3CCC4=CC(=O)CCC4=C3CC[C@@]21C", "note": "[R-2050, reference compound]", "values": [
      {"measurement": "Ki", "setting": "progesterone receptor B; Cheng-Prusoff from IC50, reference agonist, read-out: Ki progesterone receptor B", "result": 0.26, "unit": "nM"},
      {"measurement": "IC50", "setting": "progesterone receptor B; radioligand binding, 20 hrs, reference agonist, read-out: IC50 progesterone receptor B", "result": 0.33, "unit": "nM"}
    ]}
  ]
}
